Ki data for 18 compounds are collected here from patent US8450313B2, “2,3-diaryl- or heteroaryl-substituted 1,1,1-trifluoro-2-hydroxypropyl compounds” (Hoffmann-La Roche Inc., priority 2009, dated 2013).

pKi: −log10 of the molar value.

A word on the pKi: it is the Ki on a negative log10 scale, so that one unit is a factor of ten.

For this assay, the target named is T1, full length human recombinant glucocorticoid receptor (Homo sapiens, UniProt P04150).
T1 construct: It contains some partially purified full length human recombinant glucocorticoid receptor; purchased Panvera/Invitrogen PV4302
T1 sequence (P04150 1-777): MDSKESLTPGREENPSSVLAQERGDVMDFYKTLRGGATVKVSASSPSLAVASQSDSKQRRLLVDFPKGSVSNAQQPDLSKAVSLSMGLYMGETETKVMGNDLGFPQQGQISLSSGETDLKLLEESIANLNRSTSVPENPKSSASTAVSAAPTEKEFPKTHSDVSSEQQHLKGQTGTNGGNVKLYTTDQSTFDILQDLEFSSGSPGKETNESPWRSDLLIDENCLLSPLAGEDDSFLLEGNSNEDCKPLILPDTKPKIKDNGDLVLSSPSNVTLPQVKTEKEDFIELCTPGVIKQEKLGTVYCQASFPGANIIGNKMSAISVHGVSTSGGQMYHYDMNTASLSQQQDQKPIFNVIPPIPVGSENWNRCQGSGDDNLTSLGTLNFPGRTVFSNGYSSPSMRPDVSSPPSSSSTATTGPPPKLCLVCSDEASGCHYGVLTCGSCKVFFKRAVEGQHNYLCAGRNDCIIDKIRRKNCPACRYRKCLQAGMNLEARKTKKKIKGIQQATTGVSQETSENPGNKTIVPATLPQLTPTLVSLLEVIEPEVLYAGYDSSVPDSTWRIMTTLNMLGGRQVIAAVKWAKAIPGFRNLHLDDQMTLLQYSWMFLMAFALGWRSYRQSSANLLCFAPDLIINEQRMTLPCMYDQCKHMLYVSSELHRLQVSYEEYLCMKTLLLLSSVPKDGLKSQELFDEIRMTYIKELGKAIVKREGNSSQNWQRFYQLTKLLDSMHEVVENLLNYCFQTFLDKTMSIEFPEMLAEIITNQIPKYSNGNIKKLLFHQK
Briefly: Glucocorticoid Receptor Binding Assay (Glucocorticoid Receptor Competitor Assay far red kit, fluorescence polarization). Particulars: competition with fluorescent GR ligand Fluormone GS Far Red, 3 hours at 22° C., pH 7.4; Ki calculated from IC50 by Cheng-Prusoff. In a few lines: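 Fluorescence polarization competition with partially purified full-length human recombinant GR, stabilizing peptide and Fluormone GS Far Red tracer in screening buffer pH 7.4; 3 hours at 22° C in the dark, read at 610–660 nm. IC50 from sigmoidal fit; Ki by Cheng-Prusoff.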
As to `COC(=O)CC1CCN(C(=O)c2ccc(Cl)c([C@H](C)[C@](O)(c3ccc4c(c3)N(C)C(=O)CO4)C(F)(F)F)c2)CC1` (relative stereo) [Example 19, (1-{4-Chloro-3-[3,3,3-trifluoro-2-hydroxy-1-methyl-2-(4-methyl-3-oxo-3,4-dihydro-2H-benzo[1,4]oxazin-6-yl)-propyl]-benzoyl}-piperidin-4-yl)-acetic acid methyl ester], the pKi is 6.67. With `COC(=O)c1ccc(Oc2ccc([C@H](C)[C@](O)(c3cc(C)c(C#N)c(C)c3)C(F)(F)F)c(Cl)c2)cc1F` (relative stereo) [Example 141, 4-{3-Chloro-4-[2-(4-cyano-3,5-dimethyl-phenyl)-3,3,3-trifluoro-2-hydroxy-1-methyl-propyl]-phenoxy}-2-fluoro-benzoic acid methyl ester], the pKi is 8.74. With `COC(=O)c1cnc(Oc2ccc([C@@H](C)[C@@](O)(c3ccc4c(c3)N(C)C(=O)CO4)C(F)(F)F)c(Cl)c2)nc1` (racemic) [Example 226, 2-{3-Chloro-4-[3,3,3-trifluoro-2-hydroxy-1-methyl-2-(4-methyl-3-oxo-3,4-dihydro-2H-benzo[1,4]oxazin-6-yl)-propyl]-phenoxy}-pyrimidine-5-carboxylic acid methyl ester], the pKi was 8.23.

With `CCOC(=O)C(C)(C)Oc1ccc([C@@H](C)[C@@](O)(c2ccc3c(c2)N(C)C(=O)CO3)C(F)(F)F)c(Cl)c1` (racemic) [Example 206, 2-{3-Chloro-4-[3,3,3-trifluoro-2-hydroxy-1-methyl-2-(4-methyl-3-oxo-3,4-dihydro-2H-benzo[1,4]oxazin-6-yl)-propyl]-phenoxy}-2-methyl-propionic acid ethyl ester], the pKi is 8.21. Consider `C[C@H](c1ccc(Oc2ccc(C(=O)O)c(Cl)c2)cc1Cl)[C@@](O)(c1ccc2[nH]c(=O)cc(C(F)(F)F)c2c1)C(F)(F)F` (stereo in doubt) [Example 140, 2-Chloro-4-{3-chloro-4-[3,3,3-trifluoro-2-hydroxy-1-methyl-2-(2-oxo-4-trifluoromethyl-1,2-dihydro-quinolin-6-yl)-propyl]-phenoxy}-benzoic acid], for which the pKi is 7.66.

On to `C[C@H](c1cc(O)ccc1Cl)[C@@](O)(c1ccc2oc(=O)n(C)c2c1)C(F)(F)F` (stereo in doubt) [Example 197, 5-[2-(2-Chloro-5-hydroxy-phenyl)-1-hydroxy-1-trifluoromethyl-propyl]-3-methyl-3H-benzooxazol-2-one], for which the negative-log Ki (pKi) was 8.24. As to `C[C@H](c1ccc(Oc2ncc(C(=O)O)cc2Cl)cc1Cl)[C@@](O)(c1ccc2c(c1)n(C)c(=O)n2C)C(F)(F)F` (stereo in doubt) [Example 107, 5-Chloro-6-{3-chloro-4-[2-(1,3-dimethyl-2-oxo-2,3-dihydro-1H-benzoimidazol-5-yl)-3,3,3-trifluoro-2-hydroxy-1-methyl-propyl]-phenoxy}-nicotinic acid], the pKi was 9.40. With `C[C@H](c1ccc(-c2ccc(F)c(C(=O)O)c2)cc1Cl)[C@@](O)(c1ccc2c(c1)n(C)c(=O)n2C)C(F)(F)F` (stereo in doubt) [Example 74, 3′-Chloro-4′-[2-(1,3-dimethyl-2-oxo-2,3-dihydro-1H-benzoimidazol-5-yl)-3,3,3-trifluoro-2-hydroxy-1-methyl-propyl]-4-fluoro-biphenyl-3-carboxylic acid], the pKi is 8.77. Regarding `C[C@@H](c1ccc(Oc2ccc(CC(=O)O)cc2)cc1Cl)[C@](O)(c1ccc2c(c1)N(C)C(=O)CO2)C(F)(F)F` (relative stereo) [Example 44, (4-{3-Chloro-4-[3,3,3-trifluoro-2-hydroxy-1-methyl-2-(4-methyl-3-oxo-3,4-dihydro-2H-benzo[1,4]oxazin-6-yl)-propyl]-phenoxy}-phenyl)-acetic acid], the pKi was 8.49. Turning to `C[C@H](c1ccc(Oc2cc(Cl)c(C(=O)O)cn2)cc1Cl)[C@@](O)(c1ccc2oc(=O)n(C)c2c1)C(F)(F)F` (relative stereo) [Example 185, 4-Chloro-6-{3-chloro-4-[3,3,3-trifluoro-2-hydroxy-1-methyl-2-(3-methyl-2-oxo-2,3-dihydro-benzooxazol-5-yl)-propyl]-phenoxy}-nicotinic acid], the pKi is 9.15. With `C[C@@H](c1ccc(Oc2ccc(C(=O)O)c(C(F)(F)F)n2)cc1Cl)[C@](O)(c1ccc2c(c1)n(C)c(=O)n2C)C(F)(F)F` (stereo in doubt) [Example 115, 6-{3-Chloro-4-[2-(1,3-dimethyl-2-oxo-2,3-dihydro-1H-benzoimidazol-5-yl)-3,3,3-trifluoro-2-hydroxy-1-methyl-propyl]-phenoxy}-2-trifluoromethyl-nicotinic acid], the pKi is 8.96.

For the compound `C[C@@H](c1ccc(Oc2ccc(C(=O)O)c(Cl)n2)cc1Cl)[C@](O)(c1ccc2c(c1)N(C)S(=O)(=O)N2C)C(F)(F)F` (relative stereo) [Example 159, 2-Chloro-6-{3-chloro-4-[2-(1,3-dimethyl-2,2-dioxo-2,3-dihydro-1H-2λ6-benzo[1,2,5]thiadiazol-5-yl)-3,3,3-trifluoro-2-hydroxy-1-methyl-propyl]-phenoxy}-nicotinic acid], the pKi is 8.68. As to `CCOC(=O)c1cccc(-c2ccc([C@@H](C)[C@@](O)(c3ccc4oc(=O)n(C)c4c3)C(F)(F)F)c(Cl)c2)n1` (relative stereo) [Example 188, 6-{3-Chloro-4-[3,3,3-trifluoro-2-hydroxy-1-methyl-2-(3-methyl-2-oxo-2,3-dihydro-benzooxazol-5-yl)-propyl]-phenyl}-pyridine-2-carboxylic acid ethyl ester], the pKi was 8.66. On to `C[C@H](c1ccc(-c2cccc(C(=O)O)n2)cc1Cl)[C@@](O)(c1ccc2oc(=O)n(C)c2c1)C(F)(F)F` (relative stereo) [Example 190, 6-{3-Chloro-4-[3,3,3-trifluoro-2-hydroxy-1-methyl-2-(3-methyl-2-oxo-2,3-dihydro-benzooxazol-5-yl)-propyl]-phenyl}-pyridine-2-carboxylic acid], for which the negative-log Ki (pKi) was 8.52. As to `C[C@H](c1ccc(Oc2ccc(C(=O)O)c(Cl)n2)cc1Cl)[C@@](O)(c1ccc2c(c1)n(C)c(=O)n2C)C(F)(F)F` (stereo in doubt) [Example 92, 2-Chloro-6-{3-chloro-4-[2-(1,3-dimethyl-2-oxo-2,3-dihydro-1H-benzoimidazol-5-yl)-3,3,3-trifluoro-2-hydroxy-1-methyl-propyl]-phenoxy}-nicotinic acid], the pKi was 9.22. Turning to `COC(=O)c1ccc(-c2ccc([C@H](C)[C@](O)(c3ccc4c(c3)N(C)C(=O)CO4)C(F)(F)F)c(Cl)c2)cc1Cl` (relative stereo) [Example 30, 3,3′-Dichloro-4′-[3,3,3-trifluoro-2-hydroxy-1-methyl-2-(4-methyl-3-oxo-3,4-dihydro-2H-benzo[1,4]oxazin-6-yl)-propyl]-biphenyl-4-carboxylic acid methyl ester], the pKi is 8.70. Turning to `CC(c1ccc(-c2ccc(OCC(=O)O)cc2)cc1Cl)C(O)(c1ccc2c(c1)n(C)c(=O)n2C)C(F)(F)F` (stereo not drawn) [Example 75, {3′-Chloro-4′-[2-(1,3-dimethyl-2-oxo-2,3-dihydro-1H-benzoimidazol-5-yl)-3,3,3-trifluoro-2-hydroxy-1-methyl-propyl]-biphenyl-4-yloxy}-acetic acid], the pKi is 8.72. `COC(=O)c1ccc(-c2ccc([C@@H](C)[C@@](O)(c3ccc4oc(=O)n(C)c4c3)C(F)(F)F)c(C(F)(F)F)c2)cc1F` (relative stereo) [Example 198, 3-Fluoro-4′-[3,3,3-trifluoro-2-hydroxy-1-methyl-2-(3-methyl-2-oxo-2,3-dihydro-benzooxazol-5-yl)-propyl]-3′-trifluoromethyl-biphenyl-4-carboxylic acid methyl ester]: the pKi was 8.77.
